Measured values from patent publication US20160101125A1, “COMPOSITIONS FOR USE IN CARTILAGE BREAKDOWN” (NESTEC S.A., priority 2013, published 2016).

Tests used:
Assay type in all cases: cell-based, Bos Taurus
Details in all cases: 1.5 μM, 3 days
ADAMTS-5 mRNA = ADAMTS-5 mRNA expression in bovine primary chondrocytes in alginate beads (real-time PCR, relative to GAPDH)
COX-2 mRNA = COX-2 mRNA expression in bovine primary chondrocytes in alginate beads (real-time PCR, relative to GAPDH)
Protocol: The foot of a young cow was washed to remove soil. The skin was removed from the foot. The articulation was opened transversally. Intra articular ligaments were transected. The opened articulation was washed with phosphate buffered saline. With a scalpel blade, full thickness slices of cartilage were dissected out and collected in DMEM high glucose with 10 mM hepes and 1% Penicillin-Streptomycin. Slices of cartilage were washed in DMEM high glucose with 10 mM hepes and 1% Penicillin-Streptomycin.
Cartilage was then digested successively by 0.5 mg/ml of hyluronidase during 30 minutes, 1.0 mg/ml of pronase E during 60 minutes and 1.0 mg/ml of collagenase overnight under slow agitation. […]
Total RNA was isolated from pool of 40 beads and isolated using RNeasy kit from Qiagen. cDNA was obtained by reverse transcription of RNA with the Primescript 1st strand cDNA Synthesis kit from Takara. mRNA expression of ADAMTS-5, COX-2, MMP-13 and GAPDH were quantified in real-time PCR (SYBR Green)
FIGS. 1 to 3 show mRNA expression of ADAMTS-5, COX-2 and MMP-13 normalized by GAPDH mRNA expression after 3 days of culture. Data were expressed as fold change in gene expression compared to negative control (cells cultured in complete medium). Results were calculated according to the 2^−ΔΔCT method.
IL1a interleukin-1 alpha 10 ng/ml Data were expressed as median±S.E. Median (2 experiments of 3 replicates each). […]

MMP-13 mRNA = MMP-13 mRNA expression in bovine primary chondrocytes in alginate beads (real-time PCR, relative to GAPDH)
[1] = absence of IL1a (normal conditions)
[2] = presence of IL1a 10 ng/ml (disease conditions)

O=c1c(O)c(-c2ccc(O)c(O)c2)oc2cc(O)cc(O)c12 [QRC, quercetin]
ADAMTS-5 mRNA expression relative to GAPDH (ADAMTS-5 mRNA; [1]): decrease | ADAMTS-5 mRNA expression relative to GAPDH (ADAMTS-5 mRNA; [2]): decrease | COX-2 mRNA expression relative to GAPDH (COX-2 mRNA; [1]): reduce | COX-2 mRNA expression relative to GAPDH (COX-2 mRNA; [2]): decrease | MMP-13 mRNA expression relative to GAPDH (MMP-13 mRNA; [1]): decrease | MMP-13 mRNA expression relative to GAPDH (MMP-13 mRNA; [2]): decrease
